This is an account of results in ChEMBL document CHEMBL1149622, “Synthesis, resolution, stereochemistry, and molecular modeling of (R)- and (S)-2-acetyl-1-(4'-chlorophenyl)-6,7-dimethoxy-1,2,3,4-tetrahydroisoquinoline AMPAR antagonists” (2007).

For the first assay, the species on record is Mus musculus. As to the kind of experiment: Anticonvulsant activity against audiogenic tonus seizures in DBA/2 mouse after 30 mins. Conditions: DBA/2, 0.5 h. It counts as functional.
Broadly, the ED50 is the dose that gives a 50% effect, or the effect in half of the subjects. Read a high ED50 as weaker potency. For `COc1cc2c(cc1OC)C(c1ccc(Cl)cc1)N(C(C)=O)CC2` (racemic), it took a dose of 3.53 µmol/kg to reach the 50% effect level (ED50).

In turn, `COc1cc2c(cc1OC)[C@@H](c1ccc(Cl)cc1)N(C(C)=O)CC2` registered an ED50 of 2.05 µmol/kg.

In the case of `COc1cc2c(cc1OC)[C@H](c1ccc(Cl)cc1)N(C(C)=O)CC2`, the ED50 amounted to 11.2 µmol/kg.

For a further assay, the species on record is Mus musculus. The assay can be described thus: Anticonvulsant activity against audiogenic clonus seizures in DBA/2 mouse after 30 mins. Conditions: DBA/2, 0.5 h. It counts as functional.
As for `COc1cc2c(cc1OC)C(c1ccc(Cl)cc1)N(C(C)=O)CC2` (racemic), the ED50 was 6.51 µmol/kg.

Regarding `COc1cc2c(cc1OC)[C@@H](c1ccc(Cl)cc1)N(C(C)=O)CC2`, the ED50 worked out at 4.1 µmol/kg.

Consider `COc1cc2c(cc1OC)[C@H](c1ccc(Cl)cc1)N(C(C)=O)CC2`, for which the 50% effect level (ED50) was put at a dose of 22.4 µmol/kg.
